The target in the experiment is T1, Gq coupled P2u purinergic receptor (THP-1) (Homo sapiens, UniProt P41231).
T1 construct: human monocytic leukemia cell line that carried the Gq coupled P2u purinergic receptor (THP-1); endogenous in cells; host or cells: THP-1 (human monocytic leukemia cell line)
In words: model calcium flux assay in THP-1 cells in a microfluidic device. Conditions: THP-1 cells preloaded with Fluo-3 or Fluo-4; UTP 100, 300, 1000 and 3000 nM; detection 15 seconds after exposure. The format is cell-based. The text has this: The device shown in FIG. 1A was used to test the dose response of a human monocytic leukemia cell line that carried the Gq coupled P2u purinergic receptor (THP-1), as a model calcium flux assay. Briefly, a phospholipase C/IP3/calcium signal transduction pathway is activated when the receptor binds to its ligand UTP. When the cells are preloaded with a calcium sensitive indicator, i.e., Fluo-3 or Fluo-4 (available from Molecular Probes, Eugene, Oreg.). The transient increase in intracellular calcium is then detected as a fluorescent signal.
In the present example, THP-1 cells were preloaded with Fluo-3 or Fluo-4, as well as a nucleic acid stain (Syto-62 from Molecular Probes). The cells were washed and resuspended in Cell Buffer (1.56 ml HBSS, 0.94 ml 33% Ficoll, 5 μl HEPES (1 M stock), 25 μl 100× PBC, 25 μl 10% BSA, and 0.546 ml OPTI-Prep (65% stock)) and added to reservoir 106. Different concentrations of UTP in Cell Buffer (100, 300, 1000 and 3000 nM, respectively) were then added to reagent reservoirs 110-116. […]
In order to monitor the stepwise increase of each UTP reagent solution, an additional marker solution, BODIPY-arginine, was added to the reagent reservoirs 110-116. […] Briefly, the slope of calcium signal (response) vs. Syto 62 signal (cell number) was calculated for each UTP concentration. […]

One compound from patent publication US7276330B2, “Devices, systems and methods for time domain multiplexing of reagents” (Caliper Technologies Corp., priority 1999, dated 2007) can be followed below.

Structures are written as SMILES.

T1 sequence (P41231 whole entry): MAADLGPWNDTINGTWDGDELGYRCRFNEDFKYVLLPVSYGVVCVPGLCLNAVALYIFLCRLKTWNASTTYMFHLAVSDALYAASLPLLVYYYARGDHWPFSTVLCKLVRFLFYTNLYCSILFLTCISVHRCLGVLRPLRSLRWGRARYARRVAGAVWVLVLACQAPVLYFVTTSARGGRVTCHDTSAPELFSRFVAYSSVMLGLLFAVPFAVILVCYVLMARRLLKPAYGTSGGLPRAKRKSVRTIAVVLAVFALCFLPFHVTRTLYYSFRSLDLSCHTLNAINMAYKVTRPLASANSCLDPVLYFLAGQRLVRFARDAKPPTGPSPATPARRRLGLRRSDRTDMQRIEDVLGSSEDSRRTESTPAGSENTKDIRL

With `O=c1ccn([C@@H]2O[C@H](COP(=O)(O)OP(=O)(O)OP(=O)(O)O)[C@@H](O)[C@H]2O)c(=O)[nH]1` [UTP], the “calcium signal (fluorescent peaks from each cell) with stepwise addition of UTP” value is listed as “increase discernibly in size”.
